# From US20140017336A1, “CO-ADMINISTRATION OF ARSENIC COMPOUNDS AND ANTI-HERPES VIRUS ANTI-VIRALS” (priority 2011, published 2014)
# “Also recorded” adds a separate entry of the source.
# Assays:
# EBV Zta mRNA = assay type: cell-based, Epstein-Barr virus; settings: 72 hours, qRT-PCR
# EBV BMRF1 mRNA = assay type: cell-based, Epstein-Barr virus; settings: within 72 hours, qRT-PCR
# EBV Zta = experiment: Western blot of Zta in EBV-negative MUTU cells; assay type: cell-based, Epstein-Barr virus; settings: 0, 10 nM, 100 nM ATO, day 3
# [1] = system: EBV immediate early protein Zta; experiment: Zta immunofluorescence in CNE1<EBV-BX1> cells; assay type: cell-based, Epstein-Barr virus; settings: 1 nM ATO with or without 40 μM GCV, 3 days
# Method: A549 cells were plated on 8-chambered Lab-Tek slides at 3×10^4 cells per well; chemical treatment began 24 hours after plating. At specified time points, cells were rinsed twice with PBS and fixed in 4% paraformaldehyde (freshly diluted from 16%, Electron Microscopy Science, Hatfield, Pa.) for 10 min at room temperature. The cells were then rinsed twice with PBS and permeabilized with 0.5% Triton™ X100 (Sigma) in PBS for 15 min at room temperature. Primary antibodies were applied at specified concentrations overnight in a humidified chamber at 4° C. Following 3 rinses in PBS, secondary antibodies were diluted 1:500 and applied for 1 hour at room temperature. The chambers were removed and Vectashield® with DAPI (Vector Laboratories, Burlingame, Calif. #H1200) was applied with cover slip mount. […]
# To more specifically investigate the effects of disruption of PML NB on ZTA expression, siRNA directed against the PML transcript or a control siRNA were transfected into CNE1<BX1> cells. At day 4 post transfection, PML and Zta expression were analyzed using immunofluorescence. […] EBV infected and uninfected parental CNE1 cells were transfected with siRNA against the PML transcript or control siRNA cultured in the presence or absence of 40 μM GCV for 7 days and cells were counted in order to investigate whether disruption of PML NBs using siRNA induced GCV susceptibility. […]
# LCL<EBV1-13> cells = assay type: cell-based, human; settings: 45 μM GCV, 1.0 nM ATO
# [2] = system: uninfected parental A549 cells; settings: 4 days, 10 nM ATO, 40 μM GCV
# [3] = system: MUTU1 cells (EBV positive Burkitt's lymphoma-derived); experiment: Viable cell count (trypan blue exclusion), MUTU1 cells; assay type: cell-based, human; settings: 10 nM or 100 nM ATO, 2 and 3 days
# PML NB = target: T1, PML NB (Homo sapiens, UniProt P29590); assay type: cell-based
# T1 construct: CNE1 cells were infected with the BX-1 strain of EBV and PML-NBs were imaged by fluorescent microscopy; endogenous in cells; host or cells: CNE1<EBV-BX1> (EBV-infected CNE1) and uninfected parental CNE1
# T1 sequence (P29590 1-882): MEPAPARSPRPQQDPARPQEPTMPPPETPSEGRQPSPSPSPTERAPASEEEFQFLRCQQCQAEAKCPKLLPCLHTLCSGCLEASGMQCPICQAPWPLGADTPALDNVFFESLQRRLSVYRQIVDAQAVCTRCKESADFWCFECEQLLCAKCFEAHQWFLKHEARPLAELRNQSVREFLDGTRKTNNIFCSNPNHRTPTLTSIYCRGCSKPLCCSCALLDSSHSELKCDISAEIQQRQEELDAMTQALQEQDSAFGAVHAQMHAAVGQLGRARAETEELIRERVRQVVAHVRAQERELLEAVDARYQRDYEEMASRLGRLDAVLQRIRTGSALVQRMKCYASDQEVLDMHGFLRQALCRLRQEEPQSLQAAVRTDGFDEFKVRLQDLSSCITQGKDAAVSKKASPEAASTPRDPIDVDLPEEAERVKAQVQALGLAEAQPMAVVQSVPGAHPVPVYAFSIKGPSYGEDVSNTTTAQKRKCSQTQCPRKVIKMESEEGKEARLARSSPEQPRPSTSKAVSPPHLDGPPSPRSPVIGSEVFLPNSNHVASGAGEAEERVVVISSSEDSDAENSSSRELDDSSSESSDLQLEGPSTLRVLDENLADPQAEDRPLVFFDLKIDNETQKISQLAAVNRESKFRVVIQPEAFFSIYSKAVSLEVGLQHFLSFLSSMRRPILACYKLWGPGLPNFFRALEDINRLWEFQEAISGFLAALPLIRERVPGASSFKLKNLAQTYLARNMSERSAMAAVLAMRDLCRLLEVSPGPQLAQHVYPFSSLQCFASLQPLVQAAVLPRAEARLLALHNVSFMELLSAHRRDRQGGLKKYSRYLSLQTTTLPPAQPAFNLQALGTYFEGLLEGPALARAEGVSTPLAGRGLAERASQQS
# CNE1<EBV BX1> tumors = experiment: CNE1<EBV BX1> nasopharyngeal carcinoma xenograft, tumor volume; assay type: in vivo, male nude mice; settings: 21 days of once daily treatment; GCV 100 μg/g, ATO 100 ng/g; carrier control just under double
substance,measurement,setting,value
arsenic trioxide [ATO],ATO concentration inducing an increase in Zta mRNA,EBV Zta mRNA,≥ 12.5 nM
same,ATO dose inducing BMRF1 mRNA,EBV BMRF1 mRNA,≥ 12.5 nM
same,"Zta expression (Western blot), EBV-negative MUTU cells",EBV Zta,absent; also recorded: no Zta expression
same,number of Zta positive cells,[1],increased the number of cells that were Zta positive
same,viable cells after a third day of treatment compared with two days,LCL<EBV1-13> cells,barely changed
same,viability of uninfected parental cells,[2],did not affect the viability; also recorded: no effect on the viability
same,"cell viability, EBV positive MUTU cells",[3],dose and time dependent suppression of cell viability
same,PML NB immunofluorescence signal,PML NB; 1.0 nM ATO,below that of baseline untreated uninfected cells
same,ATO concentration sufficient to disrupt PML NBs,PML NB; EBV positive CNE1 cells,1 nM
same,"PML NB immunofluorescence intensity, dose response",PML NB; EBV positive CNE1 cells,diminished by exposure to ATO in a dose dependent manner
same,tumor size increase over size at day 7 (pre-treatment),CNE1<EBV BX1> tumors,approximately 10%
